Results published in article PMC7616174, “Development of Novel 4-Arylpyridin-2-one and 6-Arylpyrimidin-4-one Positive Allosteric Modulators of the M1 Muscarinic Acetylcholine Receptor” (ChemMedChem, 2020).
Read-outs that look alike come from different tables or passages of the source.

Assays:
hM1 mAChR [1] = target: T1, hM1 mAChR (Homo sapiens, UniProt P11229); experiment: IP1 accumulation assay (ACh concentration-response curves in absence or presence of modulator); assay type: cell-based; conditions: for ΔpEC50 [1 μM]: change in ACh pEC50 in presence of M1 PAM compared to control curve / activation at 1 µM: 1 μM modulator; for ΔpEC50 [1 μM]: change in ACh pEC50 in presence of M1 PAM compared to control curve / activation at 1 µM / ΔpEC50 [10 μM]: change in ACh pEC50 in presence of M1 PAM compared to control curve / activation at 10 µM: FlpIn CHO hM1 cells, mean ± SEM, 3 experiments; for activation at 1 µM: read-out: Δbaseline [1 μM]: change in basal response in presence of M1 PAM compared to control curve; for ΔpEC50 [10 μM]: change in ACh pEC50 in presence of M1 PAM compared to control curve / activation at 10 µM: 10 μM modulator; for activation at 10 µM: read-out: Δbaseline [10 μM]: change in basal response in presence of M1 PAM compared to control curve; for αβ (functional cooperativity with ACh) / τB (intrinsic efficacy of the modulator): antilog, in parentheses; for log αβ (logarithm of functional cooperativity between ACh and modulator): pKB constrained to binding value
T1 construct: expressed in transfected cells
T1 sequence (P11229 1-460): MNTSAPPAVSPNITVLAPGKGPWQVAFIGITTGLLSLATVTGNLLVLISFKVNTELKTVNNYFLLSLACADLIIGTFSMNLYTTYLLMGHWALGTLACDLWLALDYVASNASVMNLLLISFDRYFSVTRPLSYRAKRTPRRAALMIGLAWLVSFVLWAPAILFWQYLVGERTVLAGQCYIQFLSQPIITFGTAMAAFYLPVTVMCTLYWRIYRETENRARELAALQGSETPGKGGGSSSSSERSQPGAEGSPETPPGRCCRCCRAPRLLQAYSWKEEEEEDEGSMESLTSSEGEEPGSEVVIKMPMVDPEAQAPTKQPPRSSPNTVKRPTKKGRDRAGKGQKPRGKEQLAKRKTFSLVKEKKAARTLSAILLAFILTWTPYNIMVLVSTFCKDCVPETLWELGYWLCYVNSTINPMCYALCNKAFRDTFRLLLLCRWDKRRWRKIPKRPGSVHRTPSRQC
Method: Functional activity of the synthesized analogues as racemic mixtures was investigated in IP1 accumulation assays at the M1 mAChR, as described previously.[13–14] ACh concentration-response curves were generated in the absence or presence of a 1 and 10 μM concentration of each modulator. The change in baseline activity (Δbaseline) is an approximate measure of direct allosteric agonism (τB), whereas the pEC50 shift (ΔpEC50) is an approximate measure of functional cooperativity (αβ) of each modulator with ACh in the investigated signalling pathway. We aimed to identify modulators with various degrees of allosteric agonism and modulatory effects on ACh response, as these could generate distinct in vivo outcomes for applications in different conditions in the CNS or gastrointestinal (GI) tract.[[10g,h,j]]
(§1) The compounds were then fully characterised in two functional assays (Figure 2C and D); the Gq-coupled IP1 accumulation assay (Figure S2), which was used for the initial screening of the compounds, and a β-arrestin 2 recruitment assay (Figure S3). The operational efficacy (τB) values for the modulators and their functional cooperativity estimates with ACh (logαβACh) at both signalling pathways were estimated by applying an operational model of allosterism and agonism to the data [Eq. (3)],[16] and are listed in Table 5.
FlpIn CHO cells stably expressing the hM1 mAChR were seeded at 25000 per well of 96-well transparent cell culture plates and grown overnight. […] Cells were then stimulated with increasing concentration of ACh in the absence or presence of increasing concentrations of each modulator for 1 h at 37°C. […] Seven μL of cell lysates were transferred into wells of 384-well Proxiplates (Perki-nElmer Life Sciences), and IP1 levels were measured using the IP-One assay kit (Cisbio, Codolet, France). […] The signal was expressed as the HTRF ratio, interpolated from the standard curve, and normalized to the maximum response to ACh.
Changes in both baseline and pEC50 were quantified by subtracting the estimates at each M1 PAM concentrations with the control values. Propagation of the error on baseline and potency values were determined as follows [Eq. (1)]: σΔ=σPAM2+σcont.2 where σΔ is the standard error of the mean (SEM) for the change in value, and σPAM and σcont. are the SEM from the three-parameter logistic equation analysis in presence or absence of M1 PAM, respectively.
(§2) Functional interaction studies between ACh and allosteric modulators in IP1 and β-arrestin 2 recruitment assays were analysed according to a three-parameter logistic equation or the following operational model of allosterism and agonism [Eq. (3)].[16] E=Basal+(Em−Basal)([A](KB+αβ[B])+τB[B]EC50)^n/EC50n(KB+[B])^n+([A](KB+αβ[B])+τB[B]EC50)^n where Em is the maximal possible system response, and Basal is the response in the absence of agonist. [A] and [B] are concentrations of orthosteric and allosteric ligands, respectively. KB is the equilibrium dissociation constant of allosteric ligand, and EC50 is the concentration of orthosteric agonist required to achieve half maximal response. α and β represent the magnitude of the allosteric effects on orthosteric ligand affinity and efficacy, respectively; τB is the efficacy of allosteric ligand, and n is the slope factor of the transducer function that links occupancy to response.

hM1 mAChR [2] = target: T1, hM1 mAChR; experiment: Whole-cell [3H]NMS equilibrium competition radioligand binding; conditions: [3H]NMS binding; for α (binding cooperativity with ACh): antilog
Method: To determine the affinity (pKB) of the allosteric modulators for the allosteric site, and their binding cooperativity with ACh (log αACh) at the M1 mAChR, whole cell equilibrium competition binding studies were performed, using [^3H]NMS to label the orthosteric site.
FlpIn Chinese hamster ovary (CHO) cells stably expressing the hM1 mAChR were grown in Dulbecco’s modified Eagle’s medium (DMEM) (Invitrogen, Carlsbad, CA) supplemented with 5% foetal bovine serum (FBS) (Thermo-Trace, Melbourne, Australia) and 300 μg/mL G418 (Invitrogen, Carlsbad, CA). The cells were plated at 50,000 cells per well of 96-well white clear bottom plates (Greiner Bio-one, Kremsmünster, Austria), and were grown overnight. The following day, cells were washed twice with Phosphate Buffered Saline (PBS), and incubated with increasing concentrations of ACh (Sigma) in the absence or presence of increasing concentrations of each modulator and 0.2 nM [^3H]NMS (PerkinElmer Life Sciences) in binding buffer (20 mM HEPES, 100 mM NaCl, 10 mM MgCl2, pH 7.4) for 5 h at room temperature. Nonspecific binding was determined using atropine at the final concentration of 10 μM. The assays were terminated by rapid removal of the unbound radioligand followed by two washes with 100 μL/well ice-cold 0.9% NaCl buffer. Radioactivity was determined by addition of 100 μL/well Ultima gold (PerkinElmer Life Sciences) and counting in a MicroBeta plate reader (PerkinElmer Life Sciences).
Binding interaction studies with allosteric ligands were fitted to the following allosteric ternary complex model [Eq. (2)][15] Y=Bmax|A|/[Λ]+[KAKB/α^′[B]+KB][1+[I]/K1+[B]/KB+α[I][B]/KIKB] where Bmax is the total number of receptors, [A], [B] and [I] denote the concentrations of radioligand, allosteric modulator, and orthosteric ligand, respectively; KA, KB and KI are their respective equilibrium dissociation constants. α’ and α are the affinity cooperativity factors between the allosteric ligand and radioligand or the allosteric modulator and ACh, respectively. Values of α or α’ > 1 denote positive cooperativity, values < 1 but > 0 denote negative cooperativity, and a value of 1 indicates neutral coopera-tivity.

M1 mAChR = target: T2, M1 mAChR (Homo sapiens, UniProt P11229); experiment: β-arrestin 2 recruitment assay (BRET); assay type: cell-based; conditions: for log αβ (logarithm of functional cooperativity between ACh and modulator): pKB constrained to binding value
T2 construct: expressed in transfected cells; host or cells: parental FlpIn CHO cells (transient, PEI)
T2 sequence (P11229 1-460): T1 sequence (P11229 1-460)
Description: as §1
Parental FlpIn CHO cells were plated at 30000 cells/well of 96-well white Culture plates (Perkin Elmer Life Sciences) and transiently transfected with 10 ng/well of M1 Renilla luciferase (Rluc)-8 and 40 ng/well of YFP-β-arrestin 2 using linear polyethyleneimine (PEI/DNA ratio 6:1) diluted in 150 mM NaCl. DNA:PEI complexes were formed by 15 min incubation at room temperature then added to the cells and incubated at 37°C for 24 h prior to use. Cells were then washed and equilibrated in Hanks’ balanced salt solution for 1 h at 37°C. Coelenterazine h at a final concentration of 5 μM was added to each well, followed by addition of increasing concentrations of ACh in the absence or presence of increasing concentrations of each modulator. Lumines-cence and fluorescence signals were measured 5 min after agonist stimulation using the LUMIstar Omega plate reader (BMG LabTech, Offenburg, Germany). […] Data were then normalized to the maximum response to ACh.
as §2

[3] = IP1 accumulation, operational model
[4] = allosteric ternary complex model, mean ± SEM, read-out: pKB (negative logarithm of the allosteric modulator equilibrium dissociation constant) (converted)

Row | SMILES | ΔpEC50 [1 μM]: change in ACh pEC50 in presence of M1 PAM compared to control curve (hM1 mAChR [1]) | activation at 1 µM (hM1 mAChR [1]) | ΔpEC50 [10 μM]: change in ACh pEC50 in presence of M1 PAM compared to control curve (hM1 mAChR [1]) | activation at 10 µM (hM1 mAChR [1]) | αβ (functional cooperativity with ACh) (hM1 mAChR [1]; IP1 accumulation) | τB (intrinsic efficacy of the modulator) (hM1 mAChR [1]; IP1 accumulation) | log τB (logarithm of intrinsic efficacy of the modulator) (hM1 mAChR [1]; [3]) | log αβ (logarithm of functional cooperativity between ACh and modulator) (hM1 mAChR [1]; [3]) | Kb (hM1 mAChR [2]; [4]) | α (binding cooperativity with ACh) (hM1 mAChR [2]; in parentheses) | log αACh (logarithm of binding cooperativity between ACh and modulator) (hM1 mAChR [2]; mean ± SEM) | αβ (functional cooperativity with ACh) (M1 mAChR; antilog, in parentheses) | τB (intrinsic efficacy of the modulator) (M1 mAChR; antilog, in parentheses) | log τB (logarithm of intrinsic efficacy of the modulator) (M1 mAChR; operational model) | log αβ (logarithm of functional cooperativity between ACh and modulator) (M1 mAChR; operational model) | Kb (hM1 mAChR [2]; antilog of pKB, in parentheses, read-out: KB (converted))
1 | Cn1cc(-c2ccc(COc3ccccc3-c3ccn(C4CCCCC4O)c(=O)c3)cc2)cn1 (stereo not shown) [Compound 1, 1-(2-Hydroxycyclohexyl)-4-(2-((4-(1-methyl-1H-pyrazol-4-yl)-benzyl)oxy)phenyl)pyridin-2(1H)-one] | 0.88±0.09 | 15.8 ± 2.3% | 1.31±0.15 | 58.3 ± 2.3% | 100 | 4 | 0.60±0.03 | 2.00±0.10 | 11 µM | 112 | 2.05±0.17 | 65 | 1 | –0.01±0.05 | 1.81±0.09 | 
2 | Cn1cc(-c2ccc(COc3ccccc3-c3ccn(C4CCCCC4=O)c(=O)c3)cc2)cn1 (stereo not shown) [Compound 13d, 4-(2-((4-(1-Methyl-1H-pyrazol-4-yl)benzyl)oxy)phenyl)-1-(2-oxocy-clohexyl)pyridin-2(1H)-one] | 0.29±0.05 | 4.8 ± 1.4% | 1.31±0.06 | 27 ± 1.5% | 30 | 1 |  | 1.48±0.11 | 29.5 µM | 52 | 1.72±0.20 | 14 |  |  | 1.16±0.17 | 30 µM
